Literature values in patent publication US20100136094A1, “Systems for modulating inflammation” (Searete LLC, a limited liability corporation of the state …, priority 2008, published 2010).

Tests used:
[1] = 400 mg infused over one hour, single agent; Looareesuwan et al. 1986
[2] = system: proteasomal activity in cultured breast cancer cells; details: on binding copper, Chen et al. 2006
[3] = system: Src family kinases (Src, Lck, Yes, Fyn); details: at nanomolar concentrations
Epha1 = details: at nanomolar concentrations
mice = details: Nakamura et al. 2007
Toll-like receptor 4 = Toll-like receptor 4 (Homo sapiens, UniProt O00206); details: Nakamura et al. 2007
Sequence of Toll-like receptor 4 (O00206 24-839, species assumed): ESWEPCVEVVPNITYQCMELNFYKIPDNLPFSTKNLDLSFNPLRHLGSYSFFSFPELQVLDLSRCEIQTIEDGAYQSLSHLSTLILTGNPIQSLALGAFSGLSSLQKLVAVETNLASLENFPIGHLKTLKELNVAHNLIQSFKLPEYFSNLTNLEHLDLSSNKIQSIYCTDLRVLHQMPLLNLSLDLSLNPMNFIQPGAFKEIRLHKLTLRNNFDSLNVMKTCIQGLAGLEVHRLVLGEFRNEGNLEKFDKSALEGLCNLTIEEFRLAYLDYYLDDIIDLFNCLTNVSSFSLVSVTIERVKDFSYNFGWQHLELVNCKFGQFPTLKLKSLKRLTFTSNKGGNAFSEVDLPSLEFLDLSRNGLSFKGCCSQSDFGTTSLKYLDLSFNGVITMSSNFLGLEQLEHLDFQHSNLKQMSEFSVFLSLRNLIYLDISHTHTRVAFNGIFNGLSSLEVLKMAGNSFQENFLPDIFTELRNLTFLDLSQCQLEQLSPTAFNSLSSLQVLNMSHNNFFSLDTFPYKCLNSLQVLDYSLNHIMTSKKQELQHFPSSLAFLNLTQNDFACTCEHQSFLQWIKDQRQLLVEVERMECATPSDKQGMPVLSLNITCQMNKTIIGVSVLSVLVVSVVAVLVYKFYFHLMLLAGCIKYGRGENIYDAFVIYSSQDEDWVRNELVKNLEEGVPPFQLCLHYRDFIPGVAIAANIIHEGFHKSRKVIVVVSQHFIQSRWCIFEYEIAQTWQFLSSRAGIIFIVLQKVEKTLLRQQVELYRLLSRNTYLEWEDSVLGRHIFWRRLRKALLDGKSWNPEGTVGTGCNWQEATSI

Src family kinase = details: Sanjuan et al. 2006

CCN(CC)CCCC(C)Nc1ccnc2cc(Cl)ccc12.O=P(O)(O)O.O=P(O)(O)O (centres unmarked) [chloroquine phosphate, 7-chloro-4-[[4-(diethylamino)-1-methylbutyl]amino]quinoline phosphate (1:2)]
tolerability of intravenous infusion [1]: without complication

CCN(CC)C(=S)SSC(=S)N(CC)CC [Disulfiram, 1-(diethylthiocarbamoyldisulfanyl)-N,N-diethyl-methanethioamide]
inhibition of aldehyde dehydrogenase (aldehyde dehydrogenase): inhibits aldehyde dehydrogenase without toxicity
proteasomal activity [2]: inhibits proteasomal activity

Cc1nc(Nc2ncc(C(=O)Nc3c(C)cccc3Cl)s2)cc(N2CCN(CCO)CC2)n1.O [dasatinib, N-(2-chloro-6-methylphenyl)-2-[[6-[4-(2-hydroxyethyl)-1-piperazinyl]-2-methyl-4-pyrimidinyl]amino]-5-thiazolecarboxamide, monohydrate]
inhibition of Src family kinases (Src, Lck, Yes, Fyn) [3]: inhibits
inhibition of Epha1 (Epha1): inhibits

Cl.Cl.Nc1ccccc1Oc1ccc2c(N)nsc2c1 [Example M62812, 3-amino-6-(2-aminophenoxy)-1,2-benzisothiazole dihydrochloride]
prevention of lethal septic shock (mice): prevents lethal septic shock
inhibition of Toll-like receptor 4 (Toll-like receptor 4): inhibitor

CCN(CC)CCCC(C)Nc1ccnc2cc(Cl)ccc12 (centres unmarked) [Chloroquine]
inhibition of CpG-induced Src family kinase activation, or its dependent cellular responses (Src family kinase): does not inhibit
